# *1 amine or outer side, *2 acyl side, *3 side chain or, on linkers, in order; H or OH if unused. Where a SMILES comes first, the peptide text is derived from it. Bridges are numbered along the chain shown (N, C = ends). [ ]: non-standard residue; d: D form. The star is where a group is joined. Abu(4-yl) = O=C([C@H](CC[*:3])N[*:1])[*:2]; AEF = NCCOc1ccc(C[C@H](N)C(=O)O)cc1; αMeK = C[C@](N)(CCCCN)C(=O)O; Dap = NC[C@H](N)C(=O)O; OBn = c1ccc(CO*)cc1
# Molecular target: T1, Interleukin-23 receptor (Homo sapiens, UniProt Q5VWK5)
# T1 sequence (Q5VWK5 whole entry): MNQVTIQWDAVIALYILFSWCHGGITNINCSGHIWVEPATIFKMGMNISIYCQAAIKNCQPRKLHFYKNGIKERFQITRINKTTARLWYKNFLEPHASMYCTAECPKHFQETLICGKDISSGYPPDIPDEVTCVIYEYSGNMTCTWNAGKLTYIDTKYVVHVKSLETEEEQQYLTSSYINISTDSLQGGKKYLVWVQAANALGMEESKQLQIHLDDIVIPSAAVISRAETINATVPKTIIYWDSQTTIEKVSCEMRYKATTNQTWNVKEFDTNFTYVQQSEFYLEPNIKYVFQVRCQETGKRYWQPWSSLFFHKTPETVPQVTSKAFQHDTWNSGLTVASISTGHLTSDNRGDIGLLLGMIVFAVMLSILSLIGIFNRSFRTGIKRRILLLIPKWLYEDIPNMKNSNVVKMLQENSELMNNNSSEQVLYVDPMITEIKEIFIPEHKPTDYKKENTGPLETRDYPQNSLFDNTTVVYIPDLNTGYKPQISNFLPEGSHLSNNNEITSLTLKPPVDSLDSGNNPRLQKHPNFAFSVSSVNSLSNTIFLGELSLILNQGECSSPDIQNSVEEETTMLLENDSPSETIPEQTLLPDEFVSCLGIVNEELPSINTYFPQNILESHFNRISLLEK
# Assay: Inhibition of interleukin-23 binding to human interleukin-23 receptor incubated for 2 hrs by competitive binding ELISA
row,IC50 [nM],SMILES
1,> 1000,CC(C)[C@H](NC(=O)[C@H](Cc1c[nH]c2ccccc12)NC(=O)[C@H](CC(=O)O)NC(=O)[C@H](C)NC(=O)[C@@H](N)CS)C(=O)N[C@@H](CS)C(=O)N[C@@H](Cc1ccc(O)cc1)C(=O)N1Cc2ccccc2C[C@H]1C(=O)N[C@@H](Cc1cnc[nH]1)C(=O)N[C@H](C(=O)N[C@@H](Cc1ccccc1)C(=O)NCC(N)=O)[C@@H](C)O
2,> 1000,CC(=O)N[C@@H](CS)C(=O)N[C@@H](C)C(=O)N[C@H](C(=O)N[C@@H](Cc1c[nH]c2ccccc12)C(=O)N[C@H](C(=O)N[C@@H](CS)C(=O)N[C@@H](Cc1ccc(O)cc1)C(=O)N[C@@H](Cc1c[nH]c2ccccc12)C(=O)N[C@@H](Cc1cnc[nH]1)C(=O)N[C@H](C(=O)N[C@@H](Cc1ccccc1)C(=O)NCC(N)=O)[C@@H](C)O)C(C)C)[C@@H](C)O
3,> 1000,CC(=O)N[C@@H](CS)C(=O)N[C@@H](C)C(=O)N[C@@H](CC(=O)O)C(=O)N[C@@H](Cc1c[nH]c2ccccc12)C(=O)N[C@H](C(=O)N[C@@H](CS)C(=O)N[C@@H](Cc1ccc(O)cc1)C(=O)NC1(C(=O)N[C@@H](Cc2cnc[nH]2)C(=O)N[C@H](C(=O)N[C@@H](Cc2ccccc2)C(=O)NCC(=O)NCCOCC(=O)N[C@H](CCCCN)C(N)=O)[C@@H](C)O)Cc2ccccc2C1)C(C)C
4,> 30000,CC(=O)N[C@@H](CS)C(=O)N[C@@H](CCC(N)=O)C(=O)N[C@H](C(=O)N[C@@H](Cc1c[nH]c2ccccc12)C(=O)N[C@@H](CCC(N)=O)C(=O)N[C@@H](CS)C(=O)N[C@@H](Cc1ccc(O)cc1)C(=O)N[C@H](CC(=O)N[C@@H](CCCNC(=N)N)C(=O)N[C@H](C(=O)N[C@@H](CC(N)=O)C(=O)NCC(=O)NCCOCC(=O)N[C@H](CCCCN)C(N)=O)C(C)C)Cc1ccc(O)cc1)[C@@H](C)O
5,> 10000,CC(=O)N[C@@H](CS)C(=O)N[C@@H](CCCCNC(=O)COCC(=O)NCCCC[C@H](NC(=O)[C@H](CS)NC(C)=O)C(=O)N[C@@H](CC(=O)O)C(=O)N[C@@H](Cc1c[nH]c2ccccc12)C(=O)N[C@H](C(=O)N[C@@H](CS)C(=O)N[C@@H](Cc1ccc(O)cc1)C(=O)N[C@@H](Cc1c[nH]c2ccccc12)C(=O)N[C@@H](Cc1cnc[nH]1)C(=O)N[C@H](C(=O)N[C@@H](Cc1ccccc1)C(=O)NCC(=O)O)[C@@H](C)O)C(C)C)C(=O)N[C@@H](CC(=O)O)C(=O)N[C@@H](Cc1c[nH]c2ccccc12)C(=O)N[C@H](C(=O)N[C@@H](CS)C(=O)N[C@@H](Cc1ccc(O)cc1)C(=O)N[C@@H](Cc1c[nH]c2ccccc12)C(=O)N[C@@H](Cc1cnc[nH]1)C(=O)N[C@H](C(=O)N[C@@H](Cc1ccccc1)C(=O)NCC(=O)O)[C@@H](C)O)C(C)C
6,1000 to 10000,CC(=O)N[C@H](C(=O)N[C@@H](C)C(=O)N[C@@H](CC(=O)O)C(=O)N[C@@H](Cc1c[nH]c2ccccc12)C(=O)N[C@H](C(=O)N[C@@H](CS)C(=O)N[C@@H](Cc1ccc(O)cc1)C(=O)N[C@@H](Cc1c[nH]c2ccccc12)C(=O)N[C@@H](Cc1cnc[nH]1)C(=O)N[C@H](C(=O)N[C@@H](Cc1ccccc1)C(=O)NCC(N)=O)[C@@H](C)O)C(C)C)C(C)(C)S
7,> 1000,NC(=O)CC[C@H](NC(=O)[C@@H](N)CS)C(=O)N[C@@H](CO)C(=O)N[C@@H](Cc1c[nH]c2ccccc12)C(=O)N[C@@H](CCC(=O)O)C(=O)N[C@@H](CS)C(=O)N[C@@H](Cc1ccc(O)cc1)C(=O)N[C@@H](Cc1c[nH]c2ccccc12)C(=O)N[C@@H](Cc1cnc[nH]1)C(=O)N[C@@H](Cc1ccc(O)cc1)C(=O)N[C@@H](Cc1ccc(O)cc1)C(=O)NCC(N)=O (H-CQSWECYWHYYG-NH2)
8,< 500,CC(=O)N[C@@H](CS)C(=O)N[C@@H](CCCNC(=N)N)C(=O)N[C@H](C(=O)N[C@@H](Cc1c[nH]c2ccccc12)C(=O)N[C@@H](CCC(=O)O)C(=O)N[C@@H](CS)C(=O)N[C@@H](Cc1ccc(O)cc1)C(=O)N[C@@H](Cc1c[nH]c2ccccc12)C(=O)N[C@@H](Cc1cnc[nH]1)C(=O)N[C@@H](CCC(=O)O)C(=O)N[C@@H](CCC(N)=O)C(=O)N[C@@H](CO)C(N)=O)[C@@H](C)O (Ac-CRTWECYWHEQS-NH2)
9,> 1000,CC(C)[C@H](NC(=O)[C@@H]1Cc2ccccc2CN1C(=O)[C@H](CC(=O)O)NC(=O)[C@H](C)NC(=O)[C@@H](N)CS)C(=O)N[C@@H](CS)C(=O)N[C@@H](Cc1ccc(O)cc1)C(=O)N[C@@H](Cc1c[nH]c2ccccc12)C(=O)N[C@@H](Cc1cnc[nH]1)C(=O)N[C@H](C(=O)N[C@@H](Cc1ccccc1)C(=O)NCC(N)=O)[C@@H](C)O
10,> 30000,CC(=O)N[C@@H](CS)C(=O)N[C@@H](CCC(N)=O)C(=O)N[C@H](C(=O)N[C@@H](Cc1c[nH]c2ccccc12)C(=O)N[C@@H](CCC(N)=O)C(=O)N[C@@H](CS)C(N)=O)[C@@H](C)O (Ac-CQTWQC-NH2)
11,> 1000,C[C@@H](O)[C@H](NC(=O)[C@H](CCC(=O)O)NC(=O)[C@@H](N)CS)C(=O)N[C@@H](Cc1c[nH]c2ccccc12)C(=O)N[C@@H](CCC(=O)O)C(=O)N[C@@H](CS)C(=O)N[C@@H](Cc1ccc(O)cc1)C(=O)N[C@@H](Cc1c[nH]c2ccccc12)C(=O)N[C@@H](Cc1cnc[nH]1)C(=O)N[C@@H](CO)C(=O)N[C@@H](Cc1ccccc1)C(=O)N[C@@H](CO)C(N)=O (H-CETWECYWHSFS-NH2)
12,> 3000,CC(=O)NCCCC[C@H](NC(=O)[C@](C)(CCCCN)NC(=O)[C@H](CCC(=O)OCc1ccccc1)NC(=O)[C@H](Cc1ccc(OCCN)cc1)NC(=O)[C@@H]1CSCC[C@H](NC(C)=O)C(=O)N[C@@H](CN)C(=O)N[C@@H]([C@@H](C)O)C(=O)N[C@@H](Cc2c[nH]c3ccccc23)C(=O)N[C@@H](CCC(N)=O)C(=O)N1)C(=O)N[C@@H](CC(N)=O)C(=O)NCC(N)=O (Ac-[Abu(4-yl)][Dap]TWQC[AEF]E(OBn)[αMeK]K(Ac)NG-NH2; thioether 1-6)
13,> 1000,CC(C)[C@H](NC(=O)[C@H](Cc1c[nH]c2ccccc12)NC(=O)[C@H](CC(=O)O)NC(=O)[C@H](C)NC(=O)[C@@H](N)CS)C(=O)N[C@@H](CS)C(=O)N[C@@H](Cc1ccc(O)cc1)C(=O)N[C@@H](Cc1c[nH]c2ccccc12)C(=O)N[C@@H](Cc1cnc[nH]1)C(=O)N[C@H](C(=O)N[C@@H](Cc1ccccc1)C(N)=O)[C@@H](C)O
14,> 1000,CC(=O)N[C@@H](CS)C(=O)N[C@@H](C)C(=O)N[C@@H](CC(=O)O)C(=O)N[C@@H](Cc1c[nH]c2ccccc12)C(=O)N[C@H](C(=O)N[C@@H](CS)C(=O)N[C@@H](Cc1ccc(O)cc1)C(=O)N[C@@H](Cc1ccc(C(F)(F)F)cc1)C(=O)N[C@@H](CCCN)C(=O)N[C@@H](CN)C(=O)N[C@@H](Cc1ccccc1)C(=O)NCC(=O)NCCOCC(=O)N[C@H](CCCCN)C(N)=O)C(C)C
15,100 to 1000,CC(=O)NC1CC/C=C\CC(C(=O)N[C@@H](Cc2ccc(O)cc2)C(=O)N[C@@H](Cc2c[nH]c3ccccc23)C(=O)N[C@@H](CCCNC(=N)N)C(=O)N[C@@H](CCCCN)C(=O)N[C@@H](Cc2ccccc2)C(=O)NCC(=O)NCCOCC(=O)N[C@H](CCCCN)C(N)=O)NC(=O)[C@H](CCC(N)=O)NC(=O)[C@H](Cc2c[nH]c3ccccc23)NC(=O)[C@H]([C@@H](C)O)NC(=O)[C@H](CCCNC(=N)N)NC1=O (stereo partly specified)
16,< 500,CC(C)CC[C@H](NC(=O)[C@H](Cc1c[nH]c2ccccc12)NC(=O)[C@H](Cc1ccc(O)cc1)NC(=O)[C@H](CS)NC(=O)[C@H](CCC(N)=O)NC(=O)[C@H](Cc1c[nH]c2ccccc12)NC(=O)[C@@H](NC(=O)[C@H](CCC(N)=O)NC(=O)[C@@H](N)CS)[C@@H](C)O)C(=O)N[C@@H](CCC(=O)O)C(=O)N[C@@H](CC(N)=O)C(=O)NCC(=O)NCCOCC(=O)N[C@H](CCCCN)C(N)=O
